Earlier results in patent US20170360735A1, “INGESTIBLE EMULSION MATRIX FOR DELIVERY OF CREATINE” (DreamPak, priority 2016, published 2017).
Where two headings read alike, the source gives them in different places.

Legend:
[1] = ingestion of 20-30 g creatine per day for several days
[2] = oral, estimated

N-(aminoiminomethyl)-N-methylglycine [creatine]
creatine dissolved in water (at 70° F.): about 1.4% | creatine dissolved in water (at 120° F.): about 4.5% | increase in human skeletal muscle creatine content [1]: greater than 20% | absorption rate from the gastrointestinal (GI) tract [2]: 1-14%
